{"source": "ChEMBL document CHEMBL5500352", "about": "“ML162 derivatives incorporating a naphthoquinone unit as ferroptosis/apoptosis inducers: Design, synthesis, anti-cancer activity, and drug-resistance reversal evaluation” (Eur J Med Chem, 2024)", "key": {"[1]": {"biological_target": "T1, Phospholipid hydroperoxide glutathione peroxidase GPX4 (Homo sapiens) (UniProt P36969)", "T1 sequence (whole entry)": "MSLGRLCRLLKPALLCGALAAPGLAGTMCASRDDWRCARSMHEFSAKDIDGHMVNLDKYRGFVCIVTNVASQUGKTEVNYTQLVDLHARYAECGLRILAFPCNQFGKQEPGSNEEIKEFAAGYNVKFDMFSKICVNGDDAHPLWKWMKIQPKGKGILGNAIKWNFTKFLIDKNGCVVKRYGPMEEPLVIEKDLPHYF", "assay": "Induction of GPX4 degradation in human HT-1080 cells at 2 to 4 uM after 24 hrs in presence of MG132 by Western blotting assay", "type": "cell-based", "details": "dose 2-4 µM"}, "[2]": {"assay": "Toxicity in BALB/c nude mouse xenografted with human HT-1080 cells assessed as change in kidney morphology at 20 to 40 mg/kg, ip administered once daily for 19 days and measured every 2 days by H and E staining based assay", "type": "organism-based", "details": "in vivo, 456 h, dose 20-40 mg/kg, time 19 day"}, "[3]": {"assay": "Toxicity in BALB/c nude mouse xenografted with human HT-1080 cells assessed as edema at 20 to 40 mg/kg, ip administered once daily for 19 days and measured every 2 days by H and E staining based assay", "type": "organism-based", "details": "in vivo, 456 h, dose 20-40 mg/kg, time 19 day"}, "HT-1080 [4]": {"test_system": "HT-1080", "assay": "Induction of ferroptosis in human HT-1080 cells assessed as accumulation of lipid peroxidation at 1 to 4 uM after 12 hrs by BODIPYTM 581/591C11 probe based flow cytometry assay", "type": "functional, cell-based", "details": "dose 1-4 µM"}, "[5]": {"biological_target": "T1, Phospholipid hydroperoxide glutathione peroxidase GPX4 (Homo sapiens)", "assay": "Induction of GPX4 degradation in human HT-1080 cells at 2 uM after 24 hrs by Western blotting assay", "type": "cell-based"}, "HT-1080 [6]": {"test_system": "HT-1080", "assay": "Induction of apoptosis in human HT-1080 cells assessed as increase in Bax level after 24 hrs by Western blotting analysis", "type": "functional, cell-based", "details": "dose 0.5-4 µM"}, "[7]": {"assay": "Cytotoxicity against human HPNE cells", "type": "toxicity, cell-based"}, "HT-1080 [8]": {"test_system": "HT-1080", "assay": "Induction of apoptosis in human HT-1080 cells assessed as viable cells at 2 uM incubated for 24 hrs by Annexin-V FITC/PI staining based flow cytometry analysis (reference value: 92.5%)", "type": "functional", "details": "read-out: Activity"}, "HT-1080 [9]": {"test_system": "HT-1080", "assay": "Induction of apoptosis in human HT-1080 cells assessed as early apoptotic cells at 4 uM incubated for 24 hrs by Annexin-V FITC/PI staining based flow cytometry analysis (reference value: 1.85%)", "type": "functional"}, "[10]": {"assay": "Toxicity in BALB/c nude mouse xenografted with human HT-1080 cells assessed as cellular inflammation at 20 to 40 mg/kg, ip administered once daily for 19 days and measured every 2 days by H and E staining based assay", "type": "organism-based", "details": "in vivo, 456 h, dose 20-40 mg/kg, time 19 day"}, "[11]": {"test_system": "AMG 510-resistant MIA PaCa-2", "assay": "Cytotoxicity against human AAMG 510-resistant MIA PaCa-2 cells upto 5 uM", "type": "functional, cell-based"}, "HT-1080 [12]": {"test_system": "HT-1080", "assay": "Induction of apoptosis in human HT-1080 cells assessed as late apoptotic cells at 2 uM incubated for 24 hrs by Annexin-V FITC/PI staining based flow cytometry analysis (reference value: 1.66%)", "type": "functional"}, "HT-1080 [13]": {"test_system": "HT-1080", "assay": "Inhibition of cell migration in human HT-1080 cells incubated for 24 to 48 hrs by inverted microscope based wound healing assay", "type": "functional", "details": "dose 1-2 µM, time 24-48 hrs"}, "HT-1080 [14]": {"test_system": "HT-1080", "assay": "Antitumor activity against human HT-1080 cells xenografted in ip dosed BALB/c nude mouse assessed as reduction in GPX4 level administered once daily for 19 days and measured every 2 days by immunohistochemistry assay", "type": "functional, organism-based", "details": "dose 20-40 mg/kg, time 19.0 day"}, "HT-1080 [15]": {"test_system": "HT-1080", "assay": "Antitumor activity against human HT-1080 cells xenografted in ip dosed BALB/c nude mouse assessed as reduction in Bcl-2 level administered once daily for 19 days and measured every 2 days by immunohistochemistry assay", "type": "functional, organism-based", "details": "dose 20-40 mg/kg, time 19.0 day"}, "[16]": {"biological_target": "T1, Phospholipid hydroperoxide glutathione peroxidase GPX4 (Homo sapiens)", "assay": "Induction of GPX4 degradation in human HT-1080 cells after 24 hrs by Western blotting assay", "type": "cell-based", "details": "dose 1-4 µM"}}, "note": "The source made the active and inactive calls. The calls are words filed in the database; no cut-off is given here.", "data": [{"molecule": "O=C(CCCCCNC1=CC(=O)c2ccccc2C1=O)Nc1ccc(N(C(=O)CCl)C(C(=O)NCCc2ccccc2)c2cccs2)cc1", "note": "(stereo unspecified)", "values": [{"measurement": "Activity", "setting": "[1]", "value": "inactive"}, {"measurement": "Activity", "setting": "[2]", "value": "Non-Toxic"}, {"measurement": "Activity", "setting": "[3]", "value": "Non-Toxic"}, {"measurement": "Activity", "setting": "HT-1080 [4]", "value": "Active"}, {"measurement": "Activity", "setting": "[5]", "value": "Active"}, {"measurement": "Activity", "setting": "HT-1080 [6]", "value": "Dose-Dependent Effect"}, {"measurement": "IC50", "setting": "[7]", "value": 9.55, "unit": "µM"}, {"measurement": "viability at 2 µM", "setting": "HT-1080 [8]", "value": 82.7, "unit": "%"}, {"measurement": "Activity", "setting": "HT-1080 [9]", "value": 9.04, "unit": "%"}, {"measurement": "Activity", "setting": "[10]", "value": "Non-Toxic"}, {"measurement": "Activity", "setting": "[11]", "value": "inactive"}, {"measurement": "Activity", "setting": "HT-1080 [12]", "value": 4.75, "unit": "%"}, {"measurement": "inhibition", "setting": "HT-1080 [13]", "value": "Dose-Dependent Effect"}, {"measurement": "Activity", "setting": "HT-1080 [14]", "value": "Dose-Dependent Effect"}, {"measurement": "Activity", "setting": "HT-1080 [15]", "value": "Dose-Dependent Effect"}, {"measurement": "Activity", "setting": "[16]", "value": "Dose-Dependent Effect"}]}]}
